Four compounds from patent EP1175402B1, “PIPERIDINE DERIVATIVES USEFUL AS CCR5 ANTAGONISTS” (SCHERING CORPORATION, priority 1999, dated 2000) can be followed below.

T1 sequence (P51681 whole entry): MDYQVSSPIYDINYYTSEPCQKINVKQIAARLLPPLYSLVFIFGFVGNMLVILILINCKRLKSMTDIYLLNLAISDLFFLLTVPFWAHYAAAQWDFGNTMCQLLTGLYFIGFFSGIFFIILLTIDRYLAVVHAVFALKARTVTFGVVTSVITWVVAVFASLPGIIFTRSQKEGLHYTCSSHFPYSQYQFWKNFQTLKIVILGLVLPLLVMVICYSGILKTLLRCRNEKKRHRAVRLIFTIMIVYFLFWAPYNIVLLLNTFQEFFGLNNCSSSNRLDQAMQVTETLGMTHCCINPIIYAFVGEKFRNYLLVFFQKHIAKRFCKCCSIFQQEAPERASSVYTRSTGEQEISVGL

This experiment concerns the target T1, human CCR5 chemokine receptor (Homo sapiens, UniProt P51681).
T1 construct: expressed in transfected cells; host or cells: NIH 3T3 cells (murine), membranes
The experiment in a line: CCR5 membrane binding assay (inhibition of 125I-RANTES binding). The conditions noted are these: membranes from NIH 3T3 cells expressing the human CCR5 chemokine receptor, one hour incubation. Here is the method: CCR5 Membrane Binding Assay:
A high throughput screen utilizing a CCR5 membrane binding assay identifies inhibitors of RANTES binding. This assay utilizes membranes prepared from NIH 3T3 cells expressing the human CCR5 chemokine receptor which have the ability to bind to RANTES, a natural ligand for the receptor. Using a 96-well plate format, membrane preparations are incubated with ^125I-RANTES in the presence or absence of compound for one hour. Compounds are serially diluted over a wide range of 0.001 ug/ml to 1 ug/ml and tested in triplicates. Reaction cocktails are harvested through glass fiber filters, and washed thoroughly. Total counts for replicates are averaged and data reported as the concentration required to inhibit 50 percent of total ^125I-RANTES binding.
One may read the Ki as a dissociation constant, usually derived from enzyme kinetics or from competition with a known ligand. A low value points to a stronger hold on the target. For the compound `Cc1ncnc(C)c1C(=O)N1CCC(C)(N2CCC(C(Oc3ccccn3)c3ccc(Br)cc3)CC2)CC1` (single isomer, unassigned) [Example 4C], the Ki came out at 0.5 nM.

The compound `CCC(=O)OC(c1ccc(Br)cc1)C1CCN(C2(C)CCN(C(=O)c3c(C)cccc3C)CC2)CC1` (stereo not shown) [Example 1B] gave an inhibitory constant (Ki) of 14 nM.

As to `Cc1ccnc(C)c1C(=O)N1CCC(C)(N2CCC(C(Oc3ccccn3)c3ccc(S(C)(=O)=O)cc3)CC2)CC1` (stereo not shown) [Example 2], the Ki turned out to be 9.6 nM.

In turn, `CO/N=C(/c1ccc(OC(F)(F)F)cc1)C1CCN(C2(C)CCN(C(=O)c3c(C)cccc3C)CC2)CC1` [Example 7U] came in with a Ki of 62.5 nM. This Ki lies about 6.5-fold higher than the previous one.
